Source: patent US20080058890A1, “HOMOTOPIC CO[…] THE BRAIN STEM […] A SUBJECT” (The Penn State Research Foundation, priority 2006, published 2008)

System: NMDA receptor
Conditions: NMB rat; CPP 2.5 mg total i.v. (1.25 mg/ml x 0.2 ml/min x 10 min) infused before tetanus; ERs hours 7-16 post-tetanus vs control

**Q.** `O=C(O)C1CN(CCCP(=O)(O)O)CCN1` (stereo not shown) [CPP, 3-(2-Carboxypiperazin-4-yl)-propyl-1-phosphoric acid] was tested. Which “effect of a A+C-fiber tetanus on the A-fiber ERs (NTS evoked responses)” value did it give?
**A.** The value was “blocked the effect of a A+C-fiber tetanus on the A-fiber ERs”.
